# According to paper PMC6148290, “Endogenous metabolites of vitamin E limit inflammation by targeting 5-lipoxygenase” (Nature Communications, 2018):
# Read-outs that look alike come from different tables or passages of the source.
# Columns and labels:
# [1] = target: T1, human recombinant LTC4 synthase (LTC4S) (Homo sapiens, UniProt Q16873); test: LTC4 synthase activity; type: biochemical
# T1 construct: expressed in transfected cells; host or cells: HEK-293 cells stably expressing LTC4S (microsomal membranes)
# T1 sequence (Q16873 1-150): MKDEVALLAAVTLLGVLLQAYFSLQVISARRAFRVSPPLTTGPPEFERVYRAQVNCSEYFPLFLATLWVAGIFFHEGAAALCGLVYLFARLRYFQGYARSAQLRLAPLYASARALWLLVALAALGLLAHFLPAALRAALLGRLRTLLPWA
# Protocol: To investigate the effect of LCMs on LTC4S activity, we used microsomal membranes from HEK-293 cells stably expressing LTC4S[70]. […] The conversion of LTA4 to LTC4 methyl esters was initiated by addition of LTA4 methyl ester (Cayman Chemicals; 1 µM). After 10 min at 4 °C, the reaction was terminated by ice-cold methanol (one volume), and LTC-d5 methyl ester (5 ng; Cayman Chemicals) was added as internal standard. LTC4 was extracted and analyzed by UPLC-MS/MS as described for lipid mediators. Vehicle (DMSO)-treated microsomal membranes produced 7.1 ± 0.5 nmol LTC4.
# [2] = target: T2, human recombinant soluble epoxide hydrolase (sEH) (Homo sapiens, UniProt P34913); test: sEH activity; type: biochemical
# T2 construct: made in house; host or cells: Sf9 insect cells (recombinant baculovirus)
# T2 sequence (P34913 1-555): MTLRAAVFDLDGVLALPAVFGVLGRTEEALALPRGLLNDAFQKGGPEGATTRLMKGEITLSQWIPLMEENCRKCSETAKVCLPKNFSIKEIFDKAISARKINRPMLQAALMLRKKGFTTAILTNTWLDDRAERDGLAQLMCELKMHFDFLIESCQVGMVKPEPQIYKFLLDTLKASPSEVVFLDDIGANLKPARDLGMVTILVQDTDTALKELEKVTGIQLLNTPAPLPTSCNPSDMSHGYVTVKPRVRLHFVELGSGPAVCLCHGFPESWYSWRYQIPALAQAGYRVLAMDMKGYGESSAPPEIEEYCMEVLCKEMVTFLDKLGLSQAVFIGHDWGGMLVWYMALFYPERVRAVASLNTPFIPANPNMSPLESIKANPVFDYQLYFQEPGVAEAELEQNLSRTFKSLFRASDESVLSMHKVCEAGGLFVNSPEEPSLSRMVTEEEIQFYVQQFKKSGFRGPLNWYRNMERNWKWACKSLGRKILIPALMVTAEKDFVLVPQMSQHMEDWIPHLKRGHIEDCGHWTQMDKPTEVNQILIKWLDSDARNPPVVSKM
# Protocol: To investigate the effect of LCMs on sEH activity, we purified the human recombinant enzyme from sEH expressing Sf9 insect cells by benzylthio-sepharose affinity chromatography. […] The purified enzyme (60 ng) was diluted in 25 mM Tris HCl, pH 7 plus 0.1 mg/ml BSA and pre-incubated with LCMs for 10 min at room temperature. The enzymatic reaction was started by addition of PHOME (50 µM, Cayman Chemicals), which was converted to the fluorescent 6-methoxy-naphtaldehyde.
# LTB4 formation = LTB4 formation in LPS/fMLP-stimulated human blood; type: cell-based; details: 100 nM
# Protocol: LPS-activated monocytes were treated with A23187 (2.5 µM) and AA (20 µM) to induce lipid mediator biosynthesis as described for LO product formation. Human blood was pre-incubated with vehicle (DMSO) or α-T-13′-COOH (4a, 100 nM) for 10 min, primed with LPS (1 µg/ml) for 30 min and stimulated with N-formyl-methionyl-leucyl-phenylalanine (fMLP, Sigma-Aldrich; 1 µM) for 15 min at 37 °C.
# PMNL = test: Uptake of vitamin E metabolites by PMNL; type: in vitro ADME, human; details: 150 nM, 20 min; calculated for spherical PMNL, diameter 13 µm
# Protocol: Freshly isolated PMNL (1 × 10^7/ml) were suspended in PBS pH 7.4 containing 1 mg/ml glucose. […] LCMs were extracted and analyzed by UPLC-MS/MS using γ-TE-13′-COOH (4g; 12.5 pmol) as internal standard. Intracellular vitamin E metabolite concentrations were calculated assuming spherical cell shape, an equal intracellular distribution, and an average diameter of 13 µm (as determined using a Vi-CELL Series Cell Counter, Beckman Coulter, Krefeld, Germany).
# [3] = LCM concentrations in plasma and peritoneal exudate of mice with peritonitis (UPLC-MS/MS); type: in vivo; details: CD-1, mouse; for concentration at 240 min: ip, 10 mg/kg i.p., 240 min post zymosan
# Protocol: Mice were killed by inhalation of CO2 after another 30 min for determination of LTC4 levels and vascular permeability and after 4 h for the analysis of LTB4 levels, lipidomic profiles and immune cell infiltration. Cell infiltration and lipid mediator profiles during resolution were studied after 18 h. Peritoneal exudates were collected and cells counted after vital trypan blue staining. LTC4, LTB4, and PGE2 were analyzed in the exudate by enzyme immunoassays (Enzo Life Sciences, Lörrach, Germany) according to manufacturer's instructions. To assess vascular permeability, Evans blue dye (40 mg/kg in saline, 0.3 ml; Sigma-Aldrich) was injected into the tail vain immediately before the induction of peritonitis. Exudates were centrifuged (3000 × g, 5 min) and the absorbance of the supernatants was measured at 610 nm using a Beckman Coulter DU730 spectrophotometer. To investigate the effect of α-T (1a) on the accumulation of α-T-13'-COOH (4a) in infiltrated leukocytes after peritonitis has been established, vehicle or α-[…].) were given 1 h before and/or 4 h post zymosan injection, and mice were killed after another 1.5 h. Leukocytes were obtained from peritoneal exudates by centrifugation (1200 × g, 10 min, 4 °C). Lipids, including LCMs, were extracted from PMNL, murine peritoneal exudates or murine plasma by successive addition of PBS pH 7.4, methanol, chloroform and saline (final ratio: 14:34:35:17)[68]. […] Multiple reaction monitoring was used to detect LCMs in the negative ion mode. The precursor-to-product ion transitions were selected according to Jiang et al.[69] and are listed in Supplementary Table 3. The ion spray voltage was set to -4500 V, the heated capillary temperature to 450 °C, the sheath gas pressure to 50 psi, the auxiliary gas pressure to 40 psi, and the declustering potential to 80 eV (for Ts) or 110 eV (for TEs). Collision energies and lower limits of quantitation are listed in Supplementary Table 3.
smiles,measurement,setting,value
"Cc1c(C)c2c(c(C)c1O)CC[C@@](C)(CCCC(C)CCCC(C)CCCC(C)C(=O)O)O2 (stereo partly drawn) [4a, 13-((2R)-6-hydroxy-2,5,7,8-tetramethylchroman-2-yl)-2,6,10-trimethyltridecanoic acid]",IC50,[1],9.9 µM
same,IC50,[2],> 10 µM
same,effect on LTB4 formation in activated human blood,LTB4 formation,inhibited
same,intracellular concentration reached in PMNL,PMNL,micromolar
same,concentration at 30 min,"[3]; peritoneal exudate, endogenous, 30 min post zymosan injection, read-out: α-T-13′-COOH (4a) concentration in peritoneal exudate",≤ 200 nM
same,concentration at 240 min,"[3]; peritoneal exudate, read-out: α-T-13′-COOH (4a) concentration in peritoneal exudate",3900 nM
same,concentration at 240 min,"[3]; plasma, read-out: α-T-13′-COOH (4a) concentration in plasma",1400 nM
